Assays:
[1] = system: HEY cells; assay: Cellular cisplatin sensitization assay; assay type: cell-based, human; settings: absence of cisplatin, peptide 50 μM or chloroquine 5 μM, 48 h
[2] = system: OVCAR8 cells; assay: Cellular cisplatin sensitization assay; assay type: cell-based, human; settings: OVCAR8, absence of cisplatin, peptide 50 μM or chloroquine 5 μM, 48 h

## CCN(CC)CCCC(C)Nc1ccnc2cc(Cl)ccc12 (centres unmarked) [chloroquine]
[1]
  cell viability (MTT), in words: significantly reduced cell viability
[2]
  cell viability (MTT), in words: significantly reduced cell viability
